Test results: patent US8729096B2, “Imidazolidine-2,4-dione derivatives as N-formyl peptide receptor 2 modulators” (Allergan, Inc., priority 2012, dated 2014)

Target: T1, FPR2 (Homo sapiens, UniProt P25090)
T1 construct: expressed in transfected cells
T1 sequence (P25090 1-351): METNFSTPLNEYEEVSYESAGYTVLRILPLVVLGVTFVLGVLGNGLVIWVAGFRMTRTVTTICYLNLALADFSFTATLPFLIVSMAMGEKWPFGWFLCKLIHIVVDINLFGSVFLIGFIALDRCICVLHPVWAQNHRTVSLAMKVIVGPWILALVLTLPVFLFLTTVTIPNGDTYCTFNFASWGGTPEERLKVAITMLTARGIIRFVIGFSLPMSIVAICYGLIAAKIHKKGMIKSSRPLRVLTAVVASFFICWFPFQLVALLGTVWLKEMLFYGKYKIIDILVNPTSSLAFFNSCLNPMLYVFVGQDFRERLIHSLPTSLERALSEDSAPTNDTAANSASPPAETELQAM
Test: FLIPR Tetra compound-induced calcium activity in CHO-Ga16 cells stably expressing FPR2
Format: cell-based
Details: calcium activity on FLIPR Tetra; for Efficacy (fraction): efficacy given as a fraction; for EC50: tested at 0.61 to 10,000 nM
Description: CHO-Ga16 cells stably expressing FPR2 were cultured in (F12, 10% FBS, 1% PSA, 400 μg/ml geneticin and 50 μg/ml hygromycin) and HEK-Gqi5 cells stable expressing FPR2 were cultured in (DMEM high glucose, 10% FBS, 1% PSA, 400 μg/ml geneticin and 50 μg/ml hygromycin). In general, the day before the experiment, 18,000 cells/well were placed in a 384-well clear bottom poly-d-lysine coated plate. The following day the screening compound-induced calcium activity was assayed on the FLIPR^Tetra. The drug plates were prepared in 384-well microplates using the EP3 and the MultiPROBE robotic liquid handling systems. Compounds were tested at concentrations ranging from 0.61 to 10,000 nM. Results are expressed as EC50 (nM) and efficacy values.

Which results are given for `CCC1(C(C)C)NC(=O)N(CC(=O)Nc2ccc(Br)cc2)C1=O` (stereo not shown) [Compound 1, N-(4-bromophenyl)-2-(4-ethyl-4-isopropyl-2,5-dioxoimidazolidin-1-yl)acetamide]?
Efficacy (fraction): (0.99); EC50: 56 nM

For `O=C(CN1C(=O)NC2(CCC2)C1=O)Nc1ccc(Br)cc1` [Compound 6, N-(4-Bromophenyl)-2-(6,8-dioxo-5,7-diazaspiro[3.4]octan-7-yl)acetamide], which “Efficacy (fraction)” value is on record?
Its value is “(1.00)”.

What about the EC50 of the same compound?
The EC50 was 647 nM.

Which results are given for `COCC1(C)NC(=O)N(CC(=O)Nc2ccc(Br)cc2)C1=O` (stereo not shown) [Compound 5]?
Efficacy (fraction): (1.00); EC50: 306 nM

What does the source list for `O=C(CN1C(=O)C2CCCN2C1=O)Nc1ccc(Br)cc1` (stereo not shown) [Compound 2, N-(4-bromophenyl)-2-(1,3-dioxotetrahydro-1H-pyrrolo[1,2-c]imidazol-2(3H)-yl)acetamide]?
Efficacy (fraction): (0.93); EC50: 343 nM

How did the “Efficacy (fraction)” value turn out when `O=C(CN1C(=O)C2CCCCN2C1=O)Nc1ccc(Br)cc1` (stereo not shown) [Compound 3, N-(4-bromophenyl)-2-(1,3-dioxohexahydroimidazo[1,5-a]pyridin-2(3H)-yl)acetamide] was run?
The value was “(1.0)”.

What about the EC50 of the same compound?
The EC50 was 243 nM.
